Reference: ChEMBL document CHEMBL3046649, “Fungitoxic and Phytotoxic Activities of Cinnamic Acid Esters and Amides” (2000)

Assays:
[1] = test system: Brassica rapa subsp. chinensis; experiment: whole plant or invertebrate; assay type: functional; settings: 72 h, read-out: GI
Description: Phytotoxicity against Brassica rapa subsp. chinensis assessed as growth inhibition of hypocotyl at 100 ppm treated to seeds after 3 days

[2] = test system: Brassica rapa subsp. chinensis; experiment: whole plant or invertebrate; assay type: functional; settings: 72 h, read-out: GI; remark: listed apart in the source
Description: Phytotoxicity against Brassica rapa subsp. chinensis assessed as growth inhibition of radicle at 100 ppm treated to seeds after 3 days

[3] = test system: Pythium; experiment: microbe, parasite or virus in culture; assay type: functional; settings: read-out: GI
Description: Fungitoxic activity against Pythium sp. assessed as mycelial growth inhibition at 100 ppm after 4 to 5 days by agar dilution method

[4] = test system: Athelia rolfsii; experiment: microbe, parasite or virus in culture; assay type: functional; settings: Agroathelia rolfsii, read-out: GI
Description: Fungitoxic activity against Athelia rolfsii assessed as mycelial growth inhibition at 100 ppm after 4 to 5 days by agar dilution method

[5] = test system: Athelia rolfsii; experiment: Fungitoxic activity against Athelia rolfsii assessed as mycelial growth inhibition at 10 ppm after 4 to 5 days by agar dilution method; assay type: functional; settings: Agroathelia rolfsii; read-out: GI
[6] = test system: Pythium; experiment: Fungitoxic activity against Pythium sp. assessed as mycelial growth inhibition at 10 ppm after 4 to 5 days by agar dilution method; settings: read-out: GI

SMILES | inhibition of growth at 100 ppm [1] [%] | inhibition of growth at 100 ppm [2] [%] | inhibition of growth at 100 ppm [3] [%] | inhibition of growth at 100 ppm [4] [%] | inhibition of growth at 10 ppm [5] [%] | inhibition of growth at 10 ppm [6] [%]
CCC(C)NC(=O)/C=C/c1ccc(C(C)C)cc1 (centres undefined) [N-SEC-BUTYL-3-(4-ISOPROPYLPHENYL)ACRYLAMIDE] | 29 | 46 | 73 | 84 | 33 | 36
CCC(C)NC(=O)/C=C/c1ccccc1 (centres undefined) [N-SEC-BUTYLCINNAMAMIDE] | 56 | 77 | 47 | 95 | 35 | 0
CC(C)(C)NC(=O)/C=C/c1ccccc1 [N-TERT-BUTYLCINNAMAMIDE] | 34 | 73 | 71 | 92 | 26 | 14
CCCCCOC(=O)/C=C/c1ccc(Cl)cc1Cl [PENTYL 3-(2,4-DICHLOROPHENYL)ACRYLATE] | 22 | 0 | 43 | 75 | 14 | 9
CCCCCOC(=O)/C=C/c1ccc(Cl)cc1 [PENTYL 3-(4-CHLOROPHENYL)ACRYLATE] | 27 | 22 | 58 | 82 | 20 | 17
CCCCCOC(=O)/C=C/c1ccc(C(C)C)cc1 [PENTYL 3-(4-ISOPROPYLPHENYL)ACRYLATE] | 29 | 0 | 51 | 79 | 13 | 3
O=C(/C=C/c1ccc(Cl)cc1Cl)OCCc1ccccc1 [PHENETHYL 3-(2,4-DICHLOROPHENYL)ACRYLATE] | 32 | 0 | 63 | 79 | 0 | 21
O=C(/C=C/c1ccc(Cl)cc1)OCCc1ccccc1 [PHENETHYL 3-(4-CHLOROPHENYL)ACRYLATE] | 36 | 31 | 60 | 84 | 9 | 13
CC(C)c1ccc(/C=C/C(=O)OCCc2ccccc2)cc1 [PHENETHYL 3-(4-ISOPROPYLPHENYL)ACRYLATE] | 36 | 0 | 49 | 70 | 10 | 13
CCCOC(=O)/C=C/c1ccc(Cl)cc1Cl [PROPYL 3-(2,4-DICHLOROPHENYL)ACRYLATE] | 41 | 79 | 77 | 84 | 32 | 14
CCCOC(=O)/C=C/c1ccc(Cl)cc1 [PROPYL 3-(4-CHLOROPHENYL)ACRYLATE] | 40 | 78 | 87 | 97 | 41 | 8
CCCOC(=O)/C=C/c1ccc(C(C)C)cc1 [PROPYL 3-(4-ISOPROPYLPHENYL)ACRYLATE] | 8 | 5 | 68 | 89 | 43 | 13
CCCOC(=O)/C=C/c1ccccc1 [PROPYL CINNAMATE] | 31 | 7 | 95 | 86 | 40 | 18
CCC(C)OC(=O)/C=C/c1ccccc1 (centres undefined) [SEC-BUTYL CINNAMATE] | 18 | 20 | 69 | 70 | 40 | 21
